Measurements: ChEMBL document CHEMBL1137226, “Structure modifications of 6-aminoquinolones with potent anti-HIV activity” (J Med Chem, 2004)
In brackets after ≈: the same amount, converted by molar mass.

Columns and labels:
MT4 [1] = test: Maximum protection (%) of MT-4 cells from HIV-2 (ROD) induced cytopathogenicity; value ranges from 60-64%; format: functional, Homo sapiens
CCRF-CEM [2] = test: Selectivity index towards HIV-2 (ROD) in CEM cells; format: functional, Homo sapiens
MT4 [3] = test: Selectivity index towards HIV-2 (ROD) in MT-4 cells; format: functional, Homo sapiens
CCRF-CEM [4] = test: Concentration of compound that reduces the viability of mock-infected CEM cells by 50%; format: functional; conditions: Homo sapiens
MT4 [5] = test: Concentration required for protection of MT-4 cells from HIV-2 (ROD) induced cytopathogenicity in MTT assay; format: functional, cell-based; conditions: Homo sapiens
MT4 [6] = test: Maximum protection (%) of MT-4 cells from HIV-1 (IIIB) induced cytopathogenicity; value ranges from 35-59%; format: functional, Homo sapiens
CCRF-CEM [7] = test: Selectivity index towards HIV-1 (IIIB) in CEM cells; format: functional, Homo sapiens
MT4 [8] = test: Concentration of compound that reduces the viability of mock-infected MT-4 cells by 50%; format: functional; conditions: Homo sapiens
CCRF-CEM [9] = test: Concentration of compound required for protection of CEM cells from HIV-2 (ROD) induced cytopathogenicity; format: functional, cell-based; conditions: Homo sapiens
CCRF-CEM [10] = test: Concentration of compound required for protection of CEM cells from HIV-1 (IIIB) induced cytopathogenicity; format: functional, cell-based; conditions: Homo sapiens
MT4 [11] = test: Selectivity index towards HIV-1 (IIIB) in MT-4 cells; format: functional, Homo sapiens
[12] = Selectivity index towards HIV-1 (IIIB) in peripheral blood mononuclear cells; format: functional, Homo sapiens
MT4 [13] = test: Concentration required for protection of MT-4 cells from HIV-1 (IIIB) induced cytopathogenicity in MTT assay; format: functional, cell-based; conditions: Homo sapiens
[14] = Concentration of compound that reduces the viability of mock-infected peripheral blood mononuclear cells by 50%; format: functional; conditions: Homo sapiens
[15] = Concentration of compound required for reduction of p24 production in HIV-1 (IIIB) infected peripheral blood mononuclear cells; format: functional; conditions: Homo sapiens
MT4 [16] = test: Maximum protection (%) of MT-4 cells from HIV-2 (ROD) induced cytopathogenicity; format: functional, Homo sapiens
MT4 [17] = test: Maximum protection (%) of MT-4 cells from HIV-1 (IIIB) induced cytopathogenicity; value ranges from 4-8%; format: functional, Homo sapiens
MT4 [18] = test: Maximum protection (%) of MT-4 cells from HIV-1 (IIIB) induced cytopathogenicity; value ranges from 16-36%; format: functional, Homo sapiens
MT4 [19] = test: Maximum protection (%) of MT-4 cells from HIV-1 (IIIB) induced cytopathogenicity; value ranges from 0-1%; format: functional, Homo sapiens
MT4 [20] = test: Maximum protection (%) of MT-4 cells from HIV-1 (IIIB) induced cytopathogenicity; value ranges from 10-27%; format: functional, Homo sapiens
MT4 [21] = test: Maximum protection (%) of MT-4 cells from HIV-2 (ROD) induced cytopathogenicity; value ranges from 55-58%; format: functional, Homo sapiens
MT4 [22] = test: Maximum protection (%) of MT-4 cells from HIV-1 (IIIB) induced cytopathogenicity; value ranges from 32-62%; format: functional, Homo sapiens
MT4 [23] = test: Maximum protection (%) of MT-4 cells from HIV-2 (ROD) induced cytopathogenicity; value ranges from 22-24%; format: functional, Homo sapiens
MT4 [24] = test: Maximum protection (%) of MT-4 cells from HIV-1 (IIIB) induced cytopathogenicity; value ranges from 34-37%; format: functional, Homo sapiens
MT4 [25] = test: Maximum protection (%) of MT-4 cells from HIV-2 (ROD) induced cytopathogenicity; value ranges from 43-78%; format: functional, Homo sapiens
MT4 [26] = test: Maximum protection (%) of MT-4 cells from HIV-1 (IIIB) induced cytopathogenicity; value ranges from 57-110%; format: functional, Homo sapiens
MT4 [27] = test: Maximum protection (%) of MT-4 cells from HIV-2 (ROD) induced cytopathogenicity; value ranges from 29-63%; format: functional, Homo sapiens
MT4 [28] = test: Maximum protection (%) of MT-4 cells from HIV-1 (IIIB) induced cytopathogenicity; value ranges from 29-40%; format: functional, Homo sapiens
MT4 [29] = test: Maximum protection (%) of MT-4 cells from HIV-1 (IIIB) induced cytopathogenicity; value ranges from 88-115%; format: functional, Homo sapiens

Row | Compound | Selectivity index (CCRF-CEM [2]) | Selectivity index (MT4 [3]) | CC50 (CCRF-CEM [4]) [µg/mL] | EC50 (MT4 [5]) [µg/mL] | Selectivity index (CCRF-CEM [7]) | CC50 (MT4 [8]) [µg/mL] | EC50 (CCRF-CEM [9]) [µg/mL] | EC50 (CCRF-CEM [10]) [µg/mL] | Selectivity index (MT4 [11]) | Selectivity index [12] | EC50 (MT4 [13]) [µg/mL] | CC50 [14] [µg/mL] | EC50 [15] [µg/mL] | Protection (MT4 [16]) [%] | also measured
1 | Cn1cc(C(=O)O)c(=O)c2cc(N)c(N3CCN(c4ccccn4)CC3)cc21 | >1667 | 3.7 | > 100 | 0.19 (≈ 0.501 µM) | >3333 | 0.71 (≈ 1.87 µM) | 0.06 (≈ 0.158 µM) | 0.03 (≈ 0.0791 µM) | <=2.4 | 28 | ≥ 0.29 | 1.45 (≈ 3.82 µM) | 0.05 (≈ 0.132 µM) |  | Protection (MT4 [1]): <64%; Protection (MT4 [6]): <59%
2 | Cn1cc(C(=O)O)c(=O)c2cc(N)c(N3CCN(c4nc5cc(Cl)ccc5s4)CC3)cc21 |  | <1 |  | > 0.0021 |  | 0.0021 (≈ 0.00447 µM) |  |  | <1 |  | > 0.0021 |  |  | 3 | Protection (MT4 [17]): <8%
3 | Nc1cc2c(=O)c(C(=O)O)cn(C3CC3)c2cc1N1CCN(c2nc3ccccc3s2)CC1 |  | <1 |  | > 0.07 |  | 0.07 (≈ 0.152 µM) |  |  | <1 |  | > 0.07 |  |  | 42 | Protection (MT4 [18]): <36%
4 | Cn1cc(C(=O)O)c(=O)c2cc(N)c(N3CCN(c4nc5ccccc5[nH]4)CC3)cc21 |  |  |  | > 125 |  | > 125 |  |  |  |  | > 125 |  |  | 0 | Protection (MT4 [19]): <1%
5 | Cn1cc(C(=O)O)c(=O)c2cc(N)c(N3CCN(C4=Nc5ccccc5SC4)CC3)cc21 |  | <1 |  | > 2.14 |  | 2.14 (≈ 4.76 µM) |  |  | <1 |  | > 2.14 |  |  | 15 | Protection (MT4 [20]): <27%
6 | Nc1cc2c(=O)c(C(=O)O)cn(N3CCN(c4ccccn4)CC3)c2cc1N1CCN(c2ccccn2)CC1 | >8 | 3 | > 100 | 19.2 (≈ 36.5 µM) | >11 | 58.5 (≈ 111 µM) | 12 (≈ 22.8 µM) | 9.4 (≈ 17.9 µM) | <=3.4 | >=19 | ≥ 17.4 | ≥ 43.3 | 2.24 (≈ 4.25 µM) |  | Protection (MT4 [21]): <58%; Protection (MT4 [22]): <62%
7 | Nc1cc2c(=O)c(C(=O)O)cn(-c3ccc(F)cc3)c2cc1N1CCN(c2ccccn2)CC1 |  | <1 |  | > 22 |  | 22 (≈ 47.9 µM) |  |  | <1 |  | > 22 |  |  |  | Protection (MT4 [23]): <24%; Protection (MT4 [24]): <37%
8 | Cn1cc(C(=O)O)c(=O)c2cc(N)c(N3CCN(c4cccc(C(F)(F)F)c4)CC3)cc21 | 40 | <=7 | 8 (≈ 17.9 µM) | ≥ 0.31 | 89 | 2.18 (≈ 4.88 µM) | 0.2 (≈ 0.448 µM) | 0.09 (≈ 0.202 µM) | 7 | 28 | 0.31 (≈ 0.694 µM) | 1.55 (≈ 3.47 µM) | 0.05 (≈ 0.112 µM) |  | Protection (MT4 [25]): <78%; Protection (MT4 [26]): <110%
9 | Cc1nnc(N2CCN(c3cc4c(cc3N)c(=O)c(C(=O)O)cn4C)CC2)s1 |  | <=12.1 |  | ≥ 10.3 |  | > 125 |  |  | <1 |  | > 125 |  |  |  | Protection (MT4 [27]): <63%; Protection (MT4 [28]): <40%
10 | Nc1cc2c(=O)c(C(=O)O)cn(C3CC3)c2cc1N1CCN(c2cccc(C(F)(F)F)c2)CC1 | 11 | 10.1 | 9 (≈ 19 µM) | 0.38 (≈ 0.804 µM) | 11 | 3.83 (≈ 8.11 µM) | 0.8 (≈ 1.69 µM) | 0.8 (≈ 1.69 µM) | 14.2 | 4 | 0.27 (≈ 0.571 µM) | 4.63 (≈ 9.8 µM) | 1.09 (≈ 2.31 µM) | 71 | Protection (MT4 [29]): <115%
